According to patent US8962322B2, “Enhancers of induced pluripotent stem cell reprogramming” (City of Hope, priority 2012, dated 2015):

Columns and labels:
human Oct4 promoter = test: Oct4-luc luciferase reporter assay (stably transfected CV1 cells); assay type: cell-based; details: for induction of Oct4-luc, comparison with known reprogramming enhancers (in words): OAC1 1 μM, BIO 2 μM, BIX 2 μM, AzaC 2 μM, Vc 25 μg/ml, Am580 10 nM, tranylcypromine 5 μM, VPA 0.5 mM, two days; for Oct4-luc Activity / Oct4-luc fold Induction: compound at 1 μM, Oct4-luc cells, triplicates
Source text: A high-throughput screening scheme was designed to identify Oct4 promoter-activating compounds using a luciferase reporter under the control of the human Oct4 promoter (Oct4-luc). […] A stable cell line (Oct4-luc) that expresses luciferase reporter driven by the exogenous Oct4 promoter was established using hygromycin-resistance as a selection marker. These Oct4-luc cells were used for high-throughput screening of a chemical library of 80,000 compounds. The luciferase reporter activity was measured 24 hr after compound treatment. Solvent treatment was included as a negative control.
(§1) Then the promoter sequences were cloned into pGL4.4-luc-Hyg vector (Promega) to get Oct4-luc or Nanog-luc construct and the fidelity of the Oct4 and Nanog promoter DNA sequences was confirmed by bi-directional sequencing. CV 1 cells were transfected with the Oct4-luc or Nanog-luc constructs and the stably-transfected cells were selected by hygromycine resistance.
Compound Screening: The Oct4-luc cells were seeded at 1.75×10^4 cells per well density into 96-well plates. Compounds were added to cells one day after cell seeding at the concentration of 10 μM for 24 hr in the High-Throughput Screening core facility at City of Hope. Compounds that induced luciferase activity 3-fold or more were selected for further validation in both Oct4-luc and Nanog-luc cells.
(§2) Luciferase Reporter Assays: The Oct4-luc or Nanog-luc cells were treated with compound OAC 1 or its structural analogs at 1 μM concentration or at indicated concentrations in triplicates. Other compounds used include 2 μM BIO, 2 μM BIX, 2 μM
(§3) AzaC, 25 μg/ml Vc, 10 nM Am580, 5 μM tranylcypromine, and 0.5 mM VPA. Luciferase reporter assays were performed as described (51) 24 hr after compound treatment or at indicated time points. For Topflash reporter assays, 0.2 μg β-catenin-responsive Topflash reporter gene plasmid was introduced into CV1 cells using trasfection (Bio-Rad). Compounds were added 6 hr after transfection. Luciferase activity was measured 48 hr after compound treatment using the Glo Luciferase Assay System (Promega).

human Nanog promoter = test: Nanog-luc luciferase reporter assay (stably transfected CV1 cells); assay type: cell-based; details: for induction of Nanog-luc, comparison with known reprogramming enhancers (in words): OAC1 1 μM, BIO 2 μM, BIX 2 μM, AzaC 2 μM, Vc 25 μg/ml, Am580 10 nM, tranylcypromine 5 μM, VPA 0.5 mM, two days; for Nanog-luc fold Induction: compound at 1 μM, Nanog-luc cells, triplicates
Experimental: Oct4, Sox2, and Nanog form a positive regulatory loop to regulate the expression of each other, and Nanog is considered a downstream target gene of Oct4 and Sox2 (37). Therefore, activation of Nanog promoter was used as a validation assay for the identified compounds. Specifically, the Oct4 promoter-activating compounds were tested to ascertain whether they activate a human
Nanog promoter-driven luciferase reporter gene using in triplicate luciferase reporter assays.
as §1, §2, §3

SMILES | Oct4-luc fold Induction (human Oct4 promoter) [fold] | Nanog-luc fold Induction (human Nanog promoter) [fold] | induction of Oct4-luc, comparison with known reprogramming enhancers (in words) (human Oct4 promoter) | induction of Nanog-luc, comparison with known reprogramming enhancers (in words) (human Nanog promoter) | Oct4-luc Activity (human Oct4 promoter)
N[C@@H]1C[C@H]1c1ccccc1 (racemic) [tranylcypromine, reference compound] |  |  | no significant effect | no significant effect | 
CC1(C)CCC(C)(C)c2cc(C(=O)Nc3ccc(C(=O)O)cc3)ccc21 [Am580, reference compound] |  |  | no significant effect | no significant effect | 
COc1cc2nc(N3CCCN(C)CC3)nc(NC3CCN(Cc4ccccc4)CC3)c2cc1OC [BIX, reference compound] |  |  | no significant effect | no significant effect | 
CN1CCC(c2c[nH]c3ccc(NC(=O)c4ccc(F)cc4)cc23)CC1 [Compound C16] | 1.0 | 1.1 |  |  | + (molecules that induce Oct4-luc less than 1.8-fold were indicated as “+”)
O=C(Nc1ccc2[nH]ncc2c1)c1cccc(C(F)(F)F)c1 [Compound C21] | 1.2 | 1.2 |  |  | + (molecules that induce Oct4-luc less than 1.8-fold were indicated as “+”)
O=C(Nc1ccc2[nH]ncc2c1)c1ccccc1Br [Compound C24] | 1.5 | 1.6 |  |  | + (molecules that induce Oct4-luc less than 1.8-fold were indicated as “+”)
COc1ccccc1C(=O)Nc1ccc2[nH]ncc2c1 [Compound C25] | 1.5 | 1.6 |  |  | + (molecules that induce Oct4-luc less than 1.8-fold were indicated as “+”)
CCOc1ccccc1C(=O)Nc1ccc2[nH]ncc2c1 [Compound C26] | 1.2 | 1.2 |  |  | + (molecules that induce Oct4-luc less than 1.8-fold were indicated as “+”)
COc1ccc(C(=O)Nc2ccc3[nH]ncc3c2)c(OC)c1 [Compound C28] | 1.4 | 1.4 |  |  | + (molecules that induce Oct4-luc less than 1.8-fold were indicated as “+”)

Second part, led by results:

Oct4-luc fold Induction (human Oct4 promoter) [fold] | Nanog-luc fold Induction (human Nanog promoter) [fold] | SMILES | induction of Oct4-luc, comparison with known reprogramming enhancers (in words) (human Oct4 promoter) | induction of Nanog-luc, comparison with known reprogramming enhancers (in words) (human Nanog promoter) | Oct4-luc Activity (human Oct4 promoter)
1.1 | 1.1 | Cc1ccc(C(=O)Nc2ccc3[nH]cc(C#N)c3c2)cc1 [Compound C17] |  |  | + (molecules that induce Oct4-luc less than 1.8-fold were indicated as “+”)
1.3 | 1.2 | O=C(Nc1ccc2[nH]ncc2c1)c1cccc(F)c1 [Compound C18] |  |  | + (molecules that induce Oct4-luc less than 1.8-fold were indicated as “+”)
1.6 | 1.5 | O=C(Nc1ccc2[nH]ncc2c1)c1cccc(Cl)c1 [Compound C19] |  |  | + (molecules that induce Oct4-luc less than 1.8-fold were indicated as “+”)
1.5 | 1.1 | O=C(Nc1ccc2[nH]ncc2c1)c1cccc(Br)c1 [Compound C20] |  |  | + (molecules that induce Oct4-luc less than 1.8-fold were indicated as “+”)
1.5 | 1.6 | O=C(Nc1ccc2[nH]ncc2c1)c1ccccc1F [Compound C22] |  |  | + (molecules that induce Oct4-luc less than 1.8-fold were indicated as “+”)
1.7 | 1.6 | O=C(Nc1ccc2[nH]ncc2c1)c1ccccc1Cl [Compound C23] |  |  | + (molecules that induce Oct4-luc less than 1.8-fold were indicated as “+”)
1.4 | 1.4 | COc1cccc(C(=O)Nc2ccc3[nH]ncc3c2)c1OC [Compound C27] |  |  | + (molecules that induce Oct4-luc less than 1.8-fold were indicated as “+”)
